Assay results as given in patent US8445510B2, “Fused bicyclic kinase inhibitors” (OSI Pharmaceuticals, LLC, priority 2011, dated 2013).

Experiments:
Type in all cases: cell-based
MKN45 cells = assay: MKN45 cell proliferation assay (CellTiter-Glo); conditions: Homo sapiens, MKN-45, 72 h; MKN45 cell line; 3 days incubation; at least duplicate experiments; read-out: Prolif. IC50
Aurora B = biological target: T1, Aurora B (Homo sapiens, UniProt Q96GD4); assay: Aurora B cell mechanistic assay (HT-29), phospho-Histone H3 (Ser10) ELISA; conditions: HT-29 cell line; inhibition of phospho-Histone H3 (Ser10); at least duplicate experiments (italicized if single experiment); read-out: Aurora B mech IC50
T1 construct: HT-29 cells grown in complete growth media
T1 sequence (Q96GD4 whole entry): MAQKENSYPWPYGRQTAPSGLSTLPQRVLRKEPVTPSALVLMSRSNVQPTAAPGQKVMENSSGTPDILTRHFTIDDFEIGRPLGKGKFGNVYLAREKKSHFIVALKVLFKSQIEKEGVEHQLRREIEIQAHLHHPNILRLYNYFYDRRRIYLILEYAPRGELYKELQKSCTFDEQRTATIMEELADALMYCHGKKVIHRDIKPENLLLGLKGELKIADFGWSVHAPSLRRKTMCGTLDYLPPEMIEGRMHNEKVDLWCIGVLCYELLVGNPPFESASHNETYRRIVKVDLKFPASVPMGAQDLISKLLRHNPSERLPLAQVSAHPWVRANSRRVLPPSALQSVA
Method: The cellular activity of the compounds of the present invention against Aurora B may be determined by the following procedure. HT-29 cells grown in complete growth media (McCoy's 5A, 10% FCS, 1% L-glutamine) were plated into wells of a 96 well tissue culture plate (Falcon 3072) at a cell density of 4×10^4 cells/0.09 ml media/well. Cells were subsequently incubated overnight in a 5% CO2 humidified 37° C. incubator. The following day 10 μl of a 10× stock of test compound serially diluted in media was added to the cells and incubated for 1 h at 37° C. at which time Calyculin A (Cell Signaling #9902) was added at a concentration of 100 nM and cells incubated for an additional 30 minutes in a 5% CO2 humidified 37° C. incubator. Media was then aspirated and cells lysed using a Triton based lysis buffer. Lysates were transferred to a pre-coated anti-Histone H3 antibody coated plate supplied by Cell Signaling in their PathScan phospho-Histone H3 (Ser10) ELISA kit (#7155). After an overnight incubation with lysate the ELISA was continued following the manufacturer's instructions. Signal was measured on a Wallac Victor plate reader at 450 nm. DMSO control treated cells served as 100% signal and an Aurora B kinase inhibitor served as 100% inhibition. The percent inhibition of phospho-Histone H3 (Ser10) was expressed as % control. IC50 values were calculated from the percent control data using a standard four-parameter model.
The IC50 values of exemplary compounds of the present invention determined in a Aurora B cell mechanistic assay using the HT-29 cell line according to the procedures described herein in at least duplicate experiments are abbreviated as follows and are shown in Table 4: A, IC50≦0.05 μM; B, 0.05 μM<IC50≦0.2 μM; C, 0.2 μM<IC50≦1 μM; D, IC50>1 μM; ND, not determined. If only data from single experiments are available, the abbreviations are italicized. The Example # of Table 4 corresponds to the compound example number as illustrated in the Examples section.

Karpas-299 cells = assay: Karpas-299 cell proliferation assay (CellTiter-Glo); conditions: Homo sapiens, 72 h; Karpas-299 cell line (NPM-ALK); 3 days incubation; at least duplicate experiments; read-out: Prolif. IC50
RON = biological target: T2, RON (Homo sapiens, UniProt Q04912); assay: sfRON cell mechanistic assay (HeLa), phosphorylated RON ELISA; conditions: HeLa cells transfected with sfRON; inhibition of phosphorylated RON; four hours incubation; at least duplicate experiments; read-out: sfRON mech IC50
T2 sequence (Q04912 913-1400): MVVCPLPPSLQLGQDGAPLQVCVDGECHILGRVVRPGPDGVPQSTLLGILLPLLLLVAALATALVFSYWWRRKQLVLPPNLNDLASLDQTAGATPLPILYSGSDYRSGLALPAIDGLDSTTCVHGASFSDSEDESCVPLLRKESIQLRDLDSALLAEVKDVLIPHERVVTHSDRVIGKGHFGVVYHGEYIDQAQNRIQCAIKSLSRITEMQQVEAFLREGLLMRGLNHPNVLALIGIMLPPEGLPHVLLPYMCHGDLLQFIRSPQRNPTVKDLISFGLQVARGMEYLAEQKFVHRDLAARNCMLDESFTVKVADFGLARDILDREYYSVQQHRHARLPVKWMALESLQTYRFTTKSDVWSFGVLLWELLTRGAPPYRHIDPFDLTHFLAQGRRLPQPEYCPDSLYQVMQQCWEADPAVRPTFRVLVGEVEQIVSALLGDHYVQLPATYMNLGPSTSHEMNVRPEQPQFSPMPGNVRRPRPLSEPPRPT
How it was run: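 HeLa cells transiently transfected with sfRON plasmid, then exposed 4 h at 37 °C to a 6-point compound series (typically 10 μM to 3 nM, 0.5% DMSO). Phospho-RON (pY1238/1239) in lysates measured by sandwich ELISA with luminescence. IC50 from 4-parameter fit of percent-of-DMSO-control data, at least duplicate runs.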

Compound | IC50 (MKN45 cells) | IC50 (Aurora B) | IC50 (Karpas-299 cells) | IC50 (RON)
COc1ccc(F)c(Cl)c1[C@@H](C)c1c[nH]c2ncc(-c3cn(C[C@H](O)CO)nc3C)cc12 [Example 9, (2S)-3-(4-{3-[(1S)-1-(2-Chloro-3-fluoro-6-methoxyphenyl)ethyl]-1H-pyrrolo[2,3-b]pyridin-5-yl}-3-methyl-1H-pyrazol-1-yl)propane-1,2-diol] | ≤ 50 nM | 200 to 1000 nM | ≤ 50 nM | 
COc1ccc(F)c(Cl)c1[C@@H](C)c1c[nH]c2ncc(-c3cn(C)nc3C(F)(F)F)cc12 [Example 29, 3-[(1S)-1-(2-Chloro-3-fluoro-6-methoxyphenyl)ethyl]-5-[1-methyl-3-(trifluoromethyl)-1H-pyrazol-4-yl]-1H-pyrrolo[2,3-b]pyridine] | > 1000 nM | > 1000 nM | > 1000 nM | 
COc1ccc(F)c(Cl)c1[C@@H](C)c1c[nH]c2ncc(-c3cn(CC(C)(C)O)nc3C(F)(F)F)cc12 [Example 30, 1-[4-{3-[(1S)-1-(2-Chloro-3-fluoro-6-methoxyphenyl)ethyl]-1H-pyrrolo[2,3-b]pyridin-5-yl}-3-(trifluoromethyl)-1H-pyrazol-1-yl]-2-methylpropan-2-ol] | 200 to 1000 nM | > 1000 nM | 200 to 1000 nM | 
COc1ccc(F)c(Cl)c1[C@@H](C)c1c[nH]c2ncc(-c3cnn(C)c3Cl)cc12 [Example 59, 3-[(1S)-1-(2-Chloro-3-fluoro-6-methoxyphenyl)ethyl]-5-(5-chloro-1-methyl-1H-pyrazol-4-yl)-1H-pyrrolo[2,3-b]pyridine] |  | > 1000 nM | 200 to 1000 nM | > 1000 nM
Cc1c(-c2cnc3[nH]cc([C@H](C)c4c(OC[C@@H](O)CO)ccc(F)c4Cl)c3c2)cnn1C [Example 68, (2S)-3-(3-Chloro-2-{(1S)-1-[5-(1,5-dimethyl-1H-pyrazol-4-yl)-1H-pyrrolo[2,3-b]pyridin-3-yl]ethyl}-4-fluorophenoxy)propane-1,2-diol] | > 1000 nM | > 1000 nM | 200 to 1000 nM | 
CCOc1ccc(F)c(Cl)c1[C@@H](C)c1c[nH]c2ncc(-c3c(C)nn(C[C@@H](O)CO)c3C)cc12 [Example 101, (2R)-3-(4-{3-[(1S)-1-(2-Chloro-6-ethoxy-3-fluorophenyl)ethyl]-1H-pyrrolo[2,3-b]pyridin-5-yl}-3,5-dimethyl-1H-pyrazol-1-yl)propane-1,2-diol] | ≤ 50 nM | > 1000 nM | ≤ 50 nM | 
Cc1c(-c2cnc3[nH]cc([C@H](C)c4c(OC[C@H](O)CO)ccc(F)c4Cl)c3c2)cnn1C [Example 127, (2R)-3-(3-Chloro-2-{(1S)-1-[5-(1,5-dimethyl-1H-pyrazol-4-yl)-1H-pyrrolo[2,3-b]pyridin-3-yl]ethyl}-4-fluorophenoxy)propane-1,2-diol] | > 1000 nM | > 1000 nM | 200 to 1000 nM | 
